One assay relates to MCF-10A. Kind of assay: Cytotoxicity against human MCF-10A cells assessed as inhibition of cell proliferation measured after 72 hrs by CCK-8 assay. It is filed as cell-based.
The next assay deals with MCF7. Kind of assay: Antiproliferative activity against human MCF7 cells assessed as inhibition of cell proliferation measured after 72 hrs by CCK-8 assay. It is filed as functional, cell-based. The note with it: MCF7, 72 h. For orientation: Tetrazolium dyes change colour on reduction, which living cells bring about.
Assay [1] concerns MDA-MB-231. Kind of assay: Antiproliferative activity against human MDA-MB-231 cells assessed as inhibition of cell proliferation measured after 72 hrs by CCK-8 assay. It is filed as functional, cell-based. Conditions: MDA-MB-231, 72 h.
In assay [2] the test system is MDA-MB-231. Nature of the assay: Induction of apoptosis in human MDA-MB-231 cells assessed as early apoptotic cells at 2.5 uM measured after 72 hrs by Annexin V-FITC/PI staining based flow cytometry method (reference value: 4.42%). It is filed as functional. (In flow cytometry, cells or beads pass a laser one at a time.)
The subject of assay [3] is MDA-MB-231. Nature of the assay: Induction of apoptosis in human MDA-MB-231 cells assessed as necrotic cells at 5 uM measured after 72 hrs by Annexin V-FITC/PI staining based flow cytometry method (reference value: 0.97%). The class given is functional.
Assay [4] relates to MDA-MB-231. Nature of the assay: Induction of ROS generation in human MDA-MB-231 cells at 1.25 uM measured after 72 hrs by DCFH-DA staining based flow cytomtery (reference value: 4.37%). It is filed as functional.
Assay [5] relates to MDA-MB-231. Nature of the assay: Induction of apoptosis in human MDA-MB-231 cells assessed as necrotic cells at 2.5 uM measured after 72 hrs by Annexin V-FITC/PI staining based flow cytometry method (reference value: 0.97%). It is filed as functional.
Assay [6] relates to MDA-MB-231. Kind of assay: Induction of DNA damage in human MDA-MB-231 cells assessed as increase in tail DNA measured after 72 hrs by comet assay. The class given is functional, cell-based. The note with it: dose 1.25-5 µM.
The test system of assay [7] is MDA-MB-231. Nature of the assay: Induction of apoptosis in human MDA-MB-231 cells assessed as necrotic cells at 1.25 uM measured after 72 hrs by Annexin V-FITC/PI staining based flow cytometry method (reference value: 0.97%). The class given is functional.
Assay [8] deals with MDA-MB-231. Nature of the assay: Cell cycle arrest in human MDA-MB-231 cells assessed as accumulation of cells at S phase at 5 uM measured after 72 hrs by PI staining based flow cytometry method (reference value: 36.19%). The class given is functional.
For assay [9], the system named is MDA-MB-231. Kind of assay: Induction of apoptosis in human MDA-MB-231 cells assessed as late apoptotic cells at 1.25 uM measured after 72 hrs by Annexin V-FITC/PI staining based flow cytometry method (reference value: 1.34%). The class given is functional.
Assay [10] concerns MDA-MB-231. Nature of the assay: Induction of apoptosis in human MDA-MB-231 cells assessed as early apoptotic cells at 5 uM measured after 72 hrs by Annexin V-FITC/PI staining based flow cytometry method (reference value: 4.42%). The class given is functional.
Assay [11] relates to MDA-MB-231. Nature of the assay: Cell cycle arrest in human MDA-MB-231 cells assessed as accumulation of cells at G1 phase at 1.25 uM measured after 72 hrs by PI staining based flow cytometry method (reference value: 51.58%). It is filed as functional.
Assay [12] concerns MDA-MB-231. Kind of assay: Induction of apoptosis in human MDA-MB-231 cells assessed as viable cells at 1.25 uM measured after 72 hrs by Annexin V-FITC/PI staining based flow cytometry method (reference value: 93.27%). Conditions: read-out: Activity. It is filed as functional.
Assay [13] concerns MDA-MB-231. Nature of the assay: Cell cycle arrest in human MDA-MB-231 cells assessed as accumulation of cells at G1 phase at 5 uM measured after 72 hrs by PI staining based flow cytometry method (reference value: 51.58%). The class given is functional.
Assay [14] has as its system MDA-MB-231. Kind of assay: Cell cycle arrest in human MDA-MB-231 cells assessed as accumulation of cells at G2/M phase at 5 uM measured after 72 hrs by PI staining based flow cytometry method (reference value: 12.24%). It is filed as functional.
The test system of assay [15] is MDA-MB-231. Nature of the assay: Cell cycle arrest in human MDA-MB-231 cells assessed as accumulation of cells at S phase at 1.25 uM measured after 72 hrs by PI staining based flow cytometry method (reference value: 36.19%). It is filed as functional.
Assay [16] has as its system MDA-MB-231. Nature of the assay: Induction of DNA damage in human MDA-MB-231 cells assessed as increase in generation of endogenous double strand DNA break adducts measured after 72 hrs by comet assay. The class given is functional, cell-based. The note with it: dose 1.25-5 µM.
In assay [17] the test system is MDA-MB-231. Kind of assay: Cell cycle arrest in human MDA-MB-231 cells assessed as accumulation of cells at G2/M phase at 2.5 uM measured after 72 hrs by PI staining based flow cytometry method (reference value: 12.24%). It is filed as functional.
For assay [18], the system named is MDA-MB-231. Kind of assay: Cell cycle arrest in human MDA-MB-231 cells assessed as accumulation of cells at S phase at 2.5 uM measured after 72 hrs by PI staining based flow cytometry method (reference value: 36.19%). It is filed as functional.
The test system of assay [19] is MDA-MB-231. Kind of assay: Induction of apoptosis in human MDA-MB-231 cells assessed as late apoptotic cells at 2.5 uM measured after 72 hrs by Annexin V-FITC/PI staining based flow cytometry method (reference value: 1.34%). The class given is functional.
The subject of assay [20] is MDA-MB-231. Kind of assay: Induction of apoptosis in human MDA-MB-231 cells assessed as early apoptotic cells at 1.25 uM measured after 72 hrs by Annexin V-FITC/PI staining based flow cytometry method (reference value: 4.42%). It is filed as functional.
In assay [21] the test system is MDA-MB-231. Nature of the assay: Inhibition of cell migration in human MDA-MB-231 cells measured after 24 hrs by scratch wound healing assay. The class given is functional, cell-based. Conditions: dose 1.25-5 µM.
The test system of assay [22] is MDA-MB-231. Nature of the assay: Induction of apoptosis in human MDA-MB-231 cells assessed as late apoptotic cells at 5 uM measured after 72 hrs by Annexin V-FITC/PI staining based flow cytometry method (reference value: 1.34%). It is filed as functional.
In assay [23] the test system is MDA-MB-231. Nature of the assay: Induction of apoptosis in human MDA-MB-231 cells assessed as viable cells at 5 uM measured after 72 hrs by Annexin V-FITC/PI staining based flow cytometry method (reference value: 93.27%). Conditions: read-out: Activity. The class given is functional.
For assay [24], the system named is MDA-MB-231. Kind of assay: Induction of ROS generation in human MDA-MB-231 cells at 5 uM measured after 72 hrs by DCFH-DA staining based flow cytometry (reference value: 4.37%). It is filed as functional.
In assay [25] the test system is MDA-MB-231. Nature of the assay: Inhibition of cell invasion in human MDA-MB-231 cells at 1.25 to 5 uM measured after 24 hrs by transwell assay. It is filed as functional, cell-based. The note with it: dose 1.25-5 µM.
Assay [26] deals with MDA-MB-231. Nature of the assay: Induction of apoptosis in human MDA-MB-231 cells assessed as viable cells at 2.5 uM measured after 72 hrs by Annexin V-FITC/PI staining based flow cytometry method (reference value: 93.27%). The class given is functional. Conditions: read-out: Activity.
Assay [27] deals with MDA-MB-231. Kind of assay: Cell cycle arrest in human MDA-MB-231 cells assessed as accumulation of cells at G1 phase at 2.5 uM measured after 72 hrs by PI staining based flow cytometry method (reference value: 51.58%). The class given is functional.
In assay [28] the test system is MDA-MB-231. Nature of the assay: Induction of ROS generation in human MDA-MB-231 cells at 2.5 uM measured after 72 hrs by DCFH-DA staining based flow cytometry (reference value: 4.37%). It is filed as functional.
For assay [29], the system named is MDA-MB-231. Nature of the assay: Cell cycle arrest in human MDA-MB-231 cells assessed as accumulation of cells at G2/M phase at 1.25 uM measured after 72 hrs by PI staining based flow cytometry method (reference value: 12.24%). The class given is functional.
In assay [30] the test system is MDA-MB-231. Kind of assay: Inhibition of cell adhesion in human MDA-MB-231 cells measured after 72 hrs by fluorescence microscopy. The class given is functional, cell-based. The note with it: dose 1.25-5 µM.

The source made the active and inactive calls. The calls are words filed in the database; no cut-off is given here. Where only a bound is given, the exact number is not on record here.

The IC50 is the concentration that inhibits the measured activity by half. For the compound `COC(=O)[C@H](Cc1ccc(N(CCCl)CCCl)cc1)NC(=O)CCC(=O)OCc1cc2c([nH]c3ccccc32)c(-c2ccc(OC)cc2)n1`, the results for the half-maximal inhibitory concentration (IC50) in the assay with MCF-10A, in the assay with MCF7 and in the assay on MDA-MB-231 [1] were above 40 µM, 16.9 µM and above 20 µM, respectively.
On to `Cc1nc(CO)cc2c1[nH]c1ccccc12`, for which the IC50 with MCF-10A was above 40 µM; with MCF7 it was 11.3 µM; in the assay on MDA-MB-231 [1], above 20 µM.
On the same counts, the results for `COC(=O)[C@H](Cc1ccc(N(CCCl)CCCl)cc1)NC(=O)CCCC(=O)OCc1cc2c(cn1)[nH]c1ccccc12` are above 40 µM, above 20 µM and above 20 µM.
The like results for `COc1ccc(-c2nc(COC(=O)c3ccc(N(CCCl)CCCl)cc3)cc3c2[nH]c2ccccc23)cc1` were, in that order, 35.1 µM, 2.35 µM and 14.5 µM.
Take `N[C@@H](Cc1ccc(N(CCCl)CCCl)cc1)C(=O)O` [MELPHALAN]: the figures for the half-maximal inhibitory concentration (IC50) in the assay on MCF-10A, in the assay on MCF7 and in the assay on MDA-MB-231 [1] were above 40 µM, 8.48 µM and above 20 µM, respectively.
`COC(=O)[C@H](Cc1ccc(N(CCCl)CCCl)cc1)NC(=O)CCC(=O)OCc1cc2c([nH]c3ccccc32)c(C)n1`: the results for the half-inhibitory concentration (IC50) with MCF-10A, in the assay with MCF7 and with MDA-MB-231 [1] were above 40 µM, above 20 µM and above 20 µM, respectively.
In the case of `Cc1nc(COC(=O)[C@H](Cc2ccc(N(CCCl)CCCl)cc2)NC=O)cc2c1[nH]c1ccccc12`, the Activity in the assay on MDA-MB-231 [2] was 12.24%; in the assay on MDA-MB-231 [3], 5.32%; in the assay with MDA-MB-231 [4], 17.2%; in the assay with MDA-MB-231 [5] it was 3.39%; in the assay on MDA-MB-231 [6], “Dose-Dependent Effect”; with MDA-MB-231 [7], 3.49%. The Activity in the assay on MDA-MB-231 [8] was 37.74%; in the assay on MDA-MB-231 [9], 9.71%; in the assay on MDA-MB-231 [10] it was 23.28%; in the assay with MDA-MB-231 [11] it was 47.85%; in the assay on MDA-MB-231 [13], 42.06%; in the assay on MDA-MB-231 [14], 20.2%. The Activity in the assay with MDA-MB-231 [15] is 38.53%; in the assay on MDA-MB-231 [16], “Dose-Dependent Effect”; in the assay with MDA-MB-231 [17], 16.45%; with MDA-MB-231 [18] it was 38.72%; in the assay with MDA-MB-231 [19], 10.22%; in the assay on MDA-MB-231 [20], 8.77%. The Activity is reported as 22.85% in the assay with MDA-MB-231 [22]; 47.15% with MDA-MB-231 [24]; 44.83% in the assay with MDA-MB-231 [27]; 20.33% with MDA-MB-231 [28]; 13.62% in the assay on MDA-MB-231 [29]. Also, the IC50 in the assay on MCF-10A worked out at 22.5 µM; in the assay on MCF7, 1.79 µM; in the assay on MDA-MB-231 [1], 4.96 µM. The viability at 1.25 µM with MDA-MB-231 [12] came out at 78%. The inhibition result in the assay on MDA-MB-231 [21] and in the assay on MDA-MB-231 [30] was “Dose-Dependent Effect” each time. The viability at 5 µM in the assay with MDA-MB-231 [23] turned out to be 48.5%. Also, the inhibition entry in the assay on MDA-MB-231 [25] is “Active”. The viability at 2.5 µM in the assay on MDA-MB-231 [26] came to 74.2%.
Regarding `O=CN[C@@H](Cc1ccc(N(CCCl)CCCl)cc1)C(=O)OCc1cc2c(cn1)[nH]c1ccccc12`, the figures for the 50% inhibitory concentration (IC50) in the assay with MCF-10A, in the assay with MCF7 and with MDA-MB-231 [1] were 25.7 µM, 2.7 µM and 6.53 µM, respectively.
On to `COC(=O)[C@H](Cc1ccc(N(CCCl)CCCl)cc1)NC(=O)CCC(=O)OCc1cc2c(cn1)[nH]c1ccccc12`, for which the results for the IC50 with MCF-10A, in the assay on MCF7 and in the assay with MDA-MB-231 [1] were above 40 µM, above 20 µM and above 20 µM, respectively.
For the compound `CC(C)(C)OC(=O)N[C@@H](Cc1ccc(N(CCCl)CCCl)cc1)C(=O)OCc1cc2c(cn1)[nH]c1ccccc12`, the 50% inhibitory concentration (IC50) in the assay on MCF-10A was above 40 µM; in the assay on MCF7, 3.43 µM; in the assay on MDA-MB-231 [1], 16.9 µM.

For the origin of these results see ChEMBL document CHEMBL4834486 (Bioorg Med Chem, 2021).
